# Patent publication US9884063B2, “Amido-substituted azole compounds” (Bayer Pharma Aktiengesellschaft, priority 2014, dated 2018)
# Counter-ions that a name gives are not always drawn.
# Molecular target: T1, TNKS2 (Homo sapiens, UniProt Q9H2K2)
# T1 sequence (Q9H2K2 1-1166): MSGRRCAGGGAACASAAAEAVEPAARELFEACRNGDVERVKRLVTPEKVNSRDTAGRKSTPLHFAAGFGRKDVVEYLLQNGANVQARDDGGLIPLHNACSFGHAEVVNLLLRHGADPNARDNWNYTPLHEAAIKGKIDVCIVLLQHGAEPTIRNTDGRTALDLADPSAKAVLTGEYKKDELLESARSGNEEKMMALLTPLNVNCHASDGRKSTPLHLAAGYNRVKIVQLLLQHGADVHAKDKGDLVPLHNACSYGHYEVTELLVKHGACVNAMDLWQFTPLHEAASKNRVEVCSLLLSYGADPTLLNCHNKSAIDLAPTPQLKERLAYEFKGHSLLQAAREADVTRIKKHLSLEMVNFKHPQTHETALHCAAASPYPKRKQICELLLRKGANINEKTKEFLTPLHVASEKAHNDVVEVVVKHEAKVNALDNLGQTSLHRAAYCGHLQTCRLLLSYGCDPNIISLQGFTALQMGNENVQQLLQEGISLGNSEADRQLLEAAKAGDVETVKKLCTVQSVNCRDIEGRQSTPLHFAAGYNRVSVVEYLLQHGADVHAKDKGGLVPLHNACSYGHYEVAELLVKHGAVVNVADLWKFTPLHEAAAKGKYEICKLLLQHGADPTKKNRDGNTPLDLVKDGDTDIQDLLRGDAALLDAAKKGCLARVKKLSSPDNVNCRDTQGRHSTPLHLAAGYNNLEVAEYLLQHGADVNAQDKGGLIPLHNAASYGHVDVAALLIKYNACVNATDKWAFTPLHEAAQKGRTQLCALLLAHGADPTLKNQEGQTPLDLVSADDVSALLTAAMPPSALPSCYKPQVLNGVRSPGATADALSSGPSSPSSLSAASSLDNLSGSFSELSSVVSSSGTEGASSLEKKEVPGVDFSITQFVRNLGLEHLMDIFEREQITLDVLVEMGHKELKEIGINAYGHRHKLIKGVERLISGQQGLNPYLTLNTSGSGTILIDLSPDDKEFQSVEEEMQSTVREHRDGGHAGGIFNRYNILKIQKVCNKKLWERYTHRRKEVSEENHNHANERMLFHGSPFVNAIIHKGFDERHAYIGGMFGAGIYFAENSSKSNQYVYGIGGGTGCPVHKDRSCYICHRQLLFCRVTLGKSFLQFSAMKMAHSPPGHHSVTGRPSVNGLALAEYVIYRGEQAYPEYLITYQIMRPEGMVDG
# Test: Modified TNKS2 Assay 3 (BPS kit #80578, biotin-NAD+, 96 well)
# Type: biochemical
# Details: human TNKS2, BPS kit #80578, 96 well
# Outline: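 Commercial kit assay measuring TNKS2-catalysed incorporation of biotin-labelled NAD+ into a protein substrate, detected by streptavidin-HRP chemiluminescence. Run per manufacturer's protocol; IC50 is the concentration halving the normalised signal.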
row,Structure (SMILES),IC50 [nM]
1,"O=C(Nc1ccc(NC(=O)c2[nH]cnc2C(=O)NCCC2CC2)cc1)c1cc(F)c(F)cc1Cl [Example 49, N^5-{4-[(2-chloro-4,5-difluorobenzoyl)amino]phenyl}-N^4-(2-cyclopropylethyl)-1H-imidazole-4,5-dicarboxamide]",> 500
2,"CC(C)c1nc(C(=O)Nc2ccc(NC(=O)c3ccc(F)cc3Cl)cc2)c(C(=O)NCCN2CCCCC2)[nH]1 [Example 108, N^4-{4-[(2-chloro-4-fluorobenzoyl)amino]phenyl}-2-isopropyl-N^5-[2-(piperidin-1-yl)ethyl]-1H-imidazole-4,5-dicarboxamide]",> 500
3,"C[C@H]1CCCCN1CCNC(=O)c1[nH]cnc1C(=O)Nc1ccc(NC(=O)c2ccc(F)cc2Cl)cc1 [Example 266, N^4-{4-[(2-chloro-4-fluorobenzoyl)amino]phenyl}-N^5-{2-[(25)-2-methylpiperidin-1-yl]ethyl}-1H-imidazole-4,5-dicarboxamide formic acid salt]",0.9
4,"O=C(Nc1ccc(NC(=O)c2ocnc2C(=O)NCCN2CCCC(F)C2)cc1)c1ccc(F)cc1Cl (stereo not shown) [Example 220, N^5-{4-[(2-chloro-4-fluorobenzoyl)amino]phenyl}-N^4-[2-(3-fluoropiperidin-1-yl)ethyl]-1,3-oxazole-4,5-dicarboxamide]",100
5,"O=C(Nc1ccc(NC(=O)c2nc[nH]c2C(=O)NCC(F)F)cc1)c1ccc(F)cc1Cl [Example 139, N^4-{4-[(2-chloro-4-fluorobenzoyl)amino]phenyl}-N^5-(2,2-difluoroethyl)-1H-imidazole-4,5-dicarboxamide]",350
6,"O=C(Nc1ccc(NC(=O)c2nc[nH]c2C(=O)NCCO)cc1)c1ccc(F)cc1Cl [Example 132, N^4-{4-[(2-chloro-4-fluorobenzoyl)amino]phenyl}-N^5-(2-hydroxyethyl)-1H-imidazole-4,5-dicarboxamide]",430
7,"CN1CCN(CCCNC(=O)c2nc[nH]c2C(=O)Nc2ccc(NC(=O)c3ccc(F)cc3Cl)cc2)CC1 [Example 392, N^5-{4-[(2-chloro-4-fluorobenzoyl)amino]phenyl}-N^4-[3-(4-methylpiperazin-1-yl)propyl]-1H-imidazole-4,5-dicarboxamide]",7
8,"O=C(Nc1ccc(NC(=O)c2[nH]cnc2C(=O)N2CC(F)C2)cc1)c1ccc(F)cc1Cl [Example 41, N-{4-[(2-chloro-4-fluorobenzoyl)amino]phenyl}-4-[(3-fluoroazetidin-1-yl)carbonyl]-1H-imidazole-5-carboxamide]",70
9,"O=C(Nc1ccc(NC(=O)c2[nH]cnc2C(=O)NCCN2CCCCC2)cc1)c1cc(OC(F)(F)F)ccc1Br [Example 63, N^5-(4-{[2-bromo-5-(trifluoromethoxy)benzoyl]amino}phenyl)-N^4-[2-(piperidin-1-yl)ethyl]-1H-imidazole-4,5-dicarboxamide]",4
10,"O=C(Nc1ccc(NC(=O)c2nc[nH]c2C(=O)NCCN2CCC[C@@H](F)C2)cc1)c1ccc(F)cc1Cl [Example 277, N^4-{4-[(2-chloro-4-fluorobenzoyl)amino]phenyl}-N^5-{2-[(3R)-3-fluoropiperidin-1-yl]ethyl}-1H-imidazole-4,5-dicarboxamide]",30
11,"O=C(Nc1ccc(NC(=O)c2nc[nH]c2C(=O)NCC2CCOC2)cc1)c1ccc(F)cc1Cl (stereo not shown) [Example 235, N^4-{4-[(2-chloro-4-fluorobenzoyl)amino]phenyl}-N^5-(tetrahydrofuran-3-ylmethyl)-1H-imidazole-4,5-dicarboxamide]",150
12,"CNC(=O)c1nc[nH]c1C(=O)Nc1ccc(NC(=O)c2ccc(OC)cc2Cl)cc1 [Example 246, N^5-{4-[(2-chloro-4-methoxybenzoyl)amino]phenyl}-N^4-methyl-1H-imidazole-4,5-dicarboxamide]",60
13,"CC(C)[C@@H](C)NC(=O)c1[nH]cnc1C(=O)Nc1ccc(NC(=O)c2ccc(F)cc2Cl)cc1 [Example 134, N^4-{4-[(2-chloro-4-fluorobenzoyl)amino]phenyl}-N^5-[(2R)-3-methylbutan-2-yl]-1H-imidazole-4,5-dicarboxamide]",510
14,"CNCCNC(=O)c1[nH]cnc1C(=O)Nc1ccc(NC(=O)c2ccc(F)cc2Cl)cc1 [Example 287, N^4-{4-[(2-chloro-4-fluorobenzoyl)amino]phenyl}-N^5-[2-(methylamino)ethyl]-1H-imidazole-4,5-dicarboxamide]",20
15,"CCc1nc(C(=O)Nc2ccc(NC(=O)c3ccc(F)cc3Cl)cc2)c(C(=O)NCCN(C)C)[nH]1 [Example 69, N^4-{4-[(2-chloro-4-fluorobenzoyl)amino]phenyl}-N^5-[2-(dimethylamino)ethyl]-2-ethyl-1H-imidazole-4,5-dicarboxamide]",190
16,"CC(C)(N)CNC(=O)c1ncoc1C(=O)Nc1ccc(NC(=O)c2ccc(F)cc2Cl)cc1 [Example 219, N^4-(2-amino-2-methylpropyl)-N^5-{4-[(2-chloro-4-fluorobenzoyl)amino]phenyl}-1,3-oxazole-4,5-dicarboxamide]",420
